Results published in patent US9163007B2, “5-substituted indazoles as kinase inhibitors” (AbbVie Inc., priority 2007, dated 2015).
Where two headings read alike, the source gives them in different places.

Legend:
[1] = system: phospho-MCM2 Ser53 in HCT-116 cells; experiment: Phospho-MCM2 ELISA; assay type: cell-based; conditions: Homo sapiens, treated 6 hours
Description: HCT-116 cells (20,000/well; 96-well format) were treated for 6 hours with increasing concentrations of compounds (0.01-10 μM in half-log increments). After removing the medium/inhibitor, the cells were frozen for 5 minutes and treated on ice with 20 μL of lysis buffer (Invitrogen #FNN0011) for 30 minutes. 80 μL of cold 2% BSA (in PBS) were then added to each well before transferring 80 μL to MCM2 antibody-coated plates (Bethyl #A300-122A, lot A300-122A-1). The plates were incubated overnight at 4° C., washed, and then incubated with the sandwich antibody (1:100 rabbit anti-human phospho-MCM2 Ser53; Bethyl #A300-756A, lot A300-756A-2) for 2 hours at room temperature. After another series of washes the samples are incubated for 1 hour with detection antibody (XSA-grade goat anti-rabbit-HRP, KPL #074-15-061, lot 50884, diluted to 2 μg/mL in 2% BSA). Plates were washed, developed using luminescence substrate (SuperSignal Pico for ELISA, Pierce #37069, Lot. HB101408), and read on a Molecular Devices M5 luminometer.

[2] = target: Cdc7/Dbf4 (Homo sapiens (Human), UniProt O00311); experiment: Cdc7 Inhibition Assay; assay type: biochemical;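 further: reaction mixtures incubated 30 min on streptavidin-coated plates, then quantified by scintillation counting, with inhibition curves fitted by non-linear regression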
Chain of Cdc7/Dbf4 (O00311 whole entry): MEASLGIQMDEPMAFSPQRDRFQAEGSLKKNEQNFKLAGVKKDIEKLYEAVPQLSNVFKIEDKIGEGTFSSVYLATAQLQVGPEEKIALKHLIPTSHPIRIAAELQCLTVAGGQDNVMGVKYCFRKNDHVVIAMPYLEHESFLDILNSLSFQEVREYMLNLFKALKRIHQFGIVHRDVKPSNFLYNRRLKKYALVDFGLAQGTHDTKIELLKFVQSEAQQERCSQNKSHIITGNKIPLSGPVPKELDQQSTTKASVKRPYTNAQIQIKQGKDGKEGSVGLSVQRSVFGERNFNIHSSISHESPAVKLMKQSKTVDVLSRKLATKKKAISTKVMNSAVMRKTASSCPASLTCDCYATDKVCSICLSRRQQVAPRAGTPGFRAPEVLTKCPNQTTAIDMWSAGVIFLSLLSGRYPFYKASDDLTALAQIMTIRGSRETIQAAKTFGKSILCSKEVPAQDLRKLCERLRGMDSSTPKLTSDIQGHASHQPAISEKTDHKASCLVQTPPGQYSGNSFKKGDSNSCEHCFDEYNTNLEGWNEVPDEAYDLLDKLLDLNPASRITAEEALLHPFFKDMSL
Chain of Cdc7/Dbf4 (Q9UBU7 whole entry partner): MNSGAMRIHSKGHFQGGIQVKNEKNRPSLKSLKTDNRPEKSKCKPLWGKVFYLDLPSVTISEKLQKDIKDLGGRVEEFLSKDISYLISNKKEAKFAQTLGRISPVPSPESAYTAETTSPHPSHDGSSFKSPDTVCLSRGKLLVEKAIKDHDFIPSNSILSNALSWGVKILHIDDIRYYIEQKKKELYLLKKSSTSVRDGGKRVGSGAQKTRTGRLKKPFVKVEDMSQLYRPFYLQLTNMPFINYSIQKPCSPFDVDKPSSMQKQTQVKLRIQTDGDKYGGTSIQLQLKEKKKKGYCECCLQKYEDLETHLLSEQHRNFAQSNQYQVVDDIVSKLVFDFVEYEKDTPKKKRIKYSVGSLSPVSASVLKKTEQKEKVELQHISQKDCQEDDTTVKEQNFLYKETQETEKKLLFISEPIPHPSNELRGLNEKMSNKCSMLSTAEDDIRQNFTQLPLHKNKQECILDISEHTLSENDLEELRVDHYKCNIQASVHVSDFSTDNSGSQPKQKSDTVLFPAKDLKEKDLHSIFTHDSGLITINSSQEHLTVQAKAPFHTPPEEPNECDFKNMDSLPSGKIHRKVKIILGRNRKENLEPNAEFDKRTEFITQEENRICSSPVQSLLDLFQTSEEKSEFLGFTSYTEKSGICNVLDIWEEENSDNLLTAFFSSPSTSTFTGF
Description: The reactions were incubated for 30 minutes on streptavidin-coated plates, washed, and quantified using a TopCount scintillation plate reader (Packard). IC50 values are determined via non-linear regression fitting of the data.

[3] = system: HCT-116 cells; experiment: AlamarBlue Cell Viability Assays; assay type: cell-based; conditions: Homo sapiens, treated 72 hours
Description: AlamarBlue Cell Viability Assays
HCT-116 cells (3,000/well; 96-well format) were treated for 72 hours with increasing concentrations of compounds (0.01-30 μM in half-log increments). The cells were then incubated in fresh media with 10% AlamarBlue reagent (Invitrogen #DAL1100). AlamarBlue reactions were incubated according to the manufacturer's instructions (approximately 4 hours) and then analyzed using an fmax fluorescence microplate reader (Molecular Devices) using excitation/emission wavelengths of 544/595 nm. Data were analyzed using SOFTmax PRO software provided by the manufacturer.

[4] = 11 data point, read-out: Ki (μM) 11 data point
[5] = 6 data point, read-out: Ki (μM) 6 data point

Row | SMILES | EC50 [1] | Ki [2, 4] | EC50 [3] | Ki [2, 5]
1 | c1ccc(Cn2cc(-c3ccc4[nH]nc(-c5cn(Cc6ccccc6)nn5)c4c3)nn2)cc1 [Example 60, 3,5-bis(1-benzyl-1H-1,2,3-triazol-4-yl)-1H-indazole] | > 10000 nM | 0.0556 µM | 143 nM | –
2 | c1ccc(Cn2cc(-c3ccc4[nH]nc(-c5ccccc5)c4c3)nn2)cc1 [Example 61, 5-(1-benzyl-1H-1,2,3-triazol-4-yl)-3-phenyl-1H-indazole] | 8790 nM | 0.0077 µM | 3980 nM | –
3 | Nc1n[nH]c2ccc(-c3cn(Cc4ccccc4)nn3)cc12 [Example 62, 5-(1-benzyl-1H-1,2,3-triazol-4-yl)-1H-indazol-3-amine] | > 10000 nM | – | 4540 nM | –
4 | COCC(=O)Nc1n[nH]c2ccc(-c3cn(Cc4ccccc4)nn3)cc12 [Example 64, N-[5-(1-benzyl-1H-1,2,3-triazol-4-yl)-1H-indazol-3-yl]-2-methoxyacetamide] | > 10000 nM | 0.015 µM | 422 nM | –
5 | O=C(Nc1n[nH]c2ccc(-c3cn(Cc4ccccc4)nn3)cc12)c1ccccc1 [Example 73, N-[5-(1-benzyl-1H-1,2,3-triazol-4-yl)-1H-indazol-3-yl]benzamide] | 1970 nM | – | 760 nM | –
6 | c1ccc(Cn2nnc(-c3ccc4[nH]ncc4c3)c2-c2ccccc2)cc1 [Example 87, 5-(1-benzyl-5-phenyl-1H-1,2,3-triazol-4-yl)-1H-indazole] | 5950 nM | 0.000601 µM | 11000 nM | –
7 | Nc1n[nH]c2ccc(-c3nnn(Cc4ccccc4)c3C3CC3)cc12 [Example 89, 5-(1-benzyl-5-cyclopropyl-1H-1,2,3-triazol-4-yl)-1H-indazol-3-amine] | > 10000 nM | 0.035 µM | 5480 nM | –
8 | Nc1n[nH]c2ccc(-c3nnn(Cc4ccccc4)c3-c3ccccc3)cc12 [Example 102, 5-(1-benzyl-5-phenyl-1H-1,2,3-triazol-4-yl)-1H-indazol-3-amine] | 3130 nM | – | 3190 nM | –
9 | Cc1c(-c2ccc3[nH]nc(N)c3c2)nnn1Cc1ccccc1 [Example 123, 5-(1-benzyl-5-methyl-1H-1,2,3-triazol-4-yl)-1H-indazol-3-amine] | > 10000 nM | – | 3860 nM | –
10 | Nc1n[nH]c2ccc(-c3nnn(Cc4ccccc4)c3-c3ccc(F)cc3)cc12 [Example 151, 5-[1-benzyl-5-(4-fluorophenyl)-1H-1,2,3-triazol-4-yl]-1H-indazol-3-amine] | 3760 nM | – | 8640 nM | –
11 | Cc1ccccc1-c1c(-c2ccc3[nH]nc(C)c3c2)nnn1Cc1ccccc1 [Example 162, 5-[1-benzyl-5-(2-methylphenyl)-1H-1,2,3-triazol-4-yl]-3-methyl-1H-indazole] | 5740 nM | 0.00225 µM | 1450 nM | –
12 | Cc1ccccc1-c1c(-c2ccc3[nH]nc(N)c3c2)nnn1Cc1ccccc1 [Example 163, 5-[1-benzyl-5-(2-methylphenyl)-1H-1,2,3-triazol-4-yl]-1H-indazol-3-amine] | 9430 nM | – | 928 nM | –
13 | Fc1ccc(-c2c(-c3ccc4[nH]ncc4c3)nnn2CC2CCOCC2)cc1 [Example 167, 5-[5-(4-fluorophenyl)-1-(tetrahydro-2H-pyran-4-ylmethyl)-1H-1,2,3-triazol-4-yl]-1H-indazole] | 4310 nM | 0.00105 µM | 18200 nM | –
14 | CN(C)c1ccc(-c2c(-c3ccc4[nH]nc(N)c4c3)nnn2Cc2ccccc2)cc1 [Example 185, 5-{1-benzyl-5-[4-(dimethylamino)phenyl]-1H-1,2,3-triazol-4-yl}-1H-indazol-3-amine] | 5470 nM | 0.0004 µM | 22600 nM | –
15 | Cn1cc(-c2c(-c3ccc4[nH]nc(N)c4c3)nnn2Cc2ccccc2)cn1 [Example 189, 5-[1-benzyl-5-(1-methyl-1H-pyrazol-4-yl)-1H-1,2,3-triazol-4-yl]-1H-indazol-3-amine] | 5320 nM | 0.0019 µM | 19200 nM | –
16 | Nc1n[nH]c2ccc(-c3nnn(Cc4ccccc4)c3-c3cccc(N4CCOCC4)c3)cc12 [Example 194, 5-[1-benzyl-5-(3-morpholin-4-ylphenyl)-1H-1,2,3-triazol-4-yl]-1H-indazol-3-amine] | > 10000 nM | 0.068 µM | 4390 nM | –

Row | SMILES | EC50 [1] | Ki [2, 4] | EC50 [3] | Ki [2, 5]
17 | O=C(Nc1n[nH]c2ccc(-c3nnn(Cc4ccccc4)c3-c3ccccc3)cc12)c1ccccc1 [Example 198, N-[5-(1-benzyl-5-phenyl-1H-1,2,3-triazol-4-yl)-1H-indazol-3-yl]benzamide] | 4160 nM | 0.0009 µM | 2900 nM | 0.0008 µM
18 | O=C(Nc1nn(C(=O)c2ccccc2)c2ccc(-c3nnn(Cc4ccccc4)c3C3CC3)cc12)c1ccccc1 [Example 204, N-[1-benzoyl-5-(1-benzyl-5-cyclopropyl-1H-1,2,3-triazol-4-yl)-1H-indazol-3-yl]benzamide] | 6210 nM | 0.11 µM | 128 nM | –
19 | O=C(Nc1n[nH]c2ccc(-c3nnn(Cc4ccccc4)c3C3CC3)cc12)c1cccc(F)c1 [Example 205, N-[5-(1-benzyl-5-cyclopropyl-1H-1,2,3-triazol-4-yl)-1H-indazol-3-yl]-3-fluorobenzamide] | > 10000 nM | 0.0024 µM | 595 nM | 0.0009 µM
20 | Clc1ccccc1CNc1n[nH]c2ccc(-c3nnn(Cc4ccccc4)c3C3CC3)cc12 [Example 222, 5-(1-benzyl-5-cyclopropyl-1H-1,2,3-triazol-4-yl)-N-(2-chlorobenzyl)-1H-indazol-3-amine] | > 10000 nM | 0.093 µM | 2110 nM | –
21 | O=C(Nc1n[nH]c2ccc(-c3nnn(Cc4ccccc4)c3C3CC3)cc12)c1cccc(Cl)c1 [Example 224, N-[5-(1-benzyl-5-cyclopropyl-1H-1,2,3-triazol-4-yl)-1H-indazol-3-yl]-3-chlorobenzamide] | > 10000 nM | – | 2420 nM | –
22 | Clc1ccc(CNc2n[nH]c3ccc(-c4nnn(Cc5ccccc5)c4C4CC4)cc23)cc1 [Example 227, 5-(1-benzyl-5-cyclopropyl-1H-1,2,3-triazol-4-yl)-N-(4-chlorobenzyl)-1H-indazol-3-amine] | > 10000 nM | 0.015 µM | 1400 nM | –
23 | NC(=O)N(Cc1ccccc1)c1n[nH]c2ccc(-c3nnn(Cc4ccccc4)c3C3CC3)cc12 [Example 262, N-benzyl-N-[5-(1-benzyl-5-cyclopropyl-1H-1,2,3-triazol-4-yl)-1H-indazol-3-yl]urea] | > 10000 nM | 0.041 µM | 3420 nM | –
24 | NC(=O)N(c1ccccc1Cl)c1n[nH]c2ccc(-c3nnn(Cc4ccccc4)c3C3CC3)cc12 [Example 263, N-[5-(1-benzyl-5-cyclopropyl-1H-1,2,3-triazol-4-yl)-1H-indazol-3-yl]-N-(2-chlorophenyl)urea] | > 10000 nM | 0.022 µM | 1040 nM | –
25 | CCCN(C(N)=O)c1n[nH]c2ccc(-c3cn(Cc4ccccc4)nn3)cc12 [Example 319, N-[5-(1-benzyl-1H-1,2,3-triazol-4-yl)-1H-indazol-3-yl]-N-propylurea] | > 10000 nM | 0.068 µM | 1560 nM | –
26 | CCNC(=O)Nc1n[nH]c2ccc(-c3cn(Cc4ccccc4)nn3)cc12 [Example 322, N-[5-(1-benzyl-1H-1,2,3-triazol-4-yl)-1H-indazol-3-yl]-N′-ethylurea] | > 10000 nM | 0.034 µM | 1530 nM | –
27 | O=C(Nc1n[nH]c2ccc(-c3cn(Cc4ccccc4)nn3)cc12)c1cccc(F)c1 [Example 395, N-[5-(1-benzyl-1H-1,2,3-triazol-4-yl)-1H-indazol-3-yl]-3-fluorobenzamide] | 2990 nM | – | 315 nM | –
28 | COC(=O)c1n[nH]c2ccc(-c3cn(Cc4ccccc4)nn3)cc12 [Example 397, methyl 5-(1-benzyl-1H-1,2,3-triazol-4-yl)-1H-indazole-3-carboxylate] | – | 0.0811 µM | 24800 nM | –
29 | c1ccc(Cn2cc(-c3ccc4[nH]nc(-c5cccs5)c4c3)nn2)cc1 [Example 401, 5-(1-benzyl-1H-1,2,3-triazol-4-yl)-3-thien-2-yl-1H-indazole] | > 10000 nM | 0.00492 µM | 6720 nM | –
30 | Nc1n[nH]c2ccc(-c3nnn(Cc4ccccc4)c3C3CCCCC3)cc12 [Example 402, 5-(1-benzyl-5-cyclohexyl-1H-1,2,3-triazol-4-yl)-1H-indazol-3-amine] | – | 0.037 µM | 37 nM | –
31 | Nc1n[nH]c2ccc(-c3nnn(Cc4ccccc4)c3CC3CCCCC3)cc12 [Example 403, 5-[1-benzyl-5-(cyclohexylmethyl)-1H-1,2,3-triazol-4-yl]-1H-indazol-3-amine] | > 10000 nM | 0.0082 µM | 8 nM | –
32 | Cc1n[nH]c2ccc(-c3nnn(Cc4ccccc4)c3-c3ccc(F)cc3)cc12 [Example 408, 5-[1-benzyl-5-(4-fluorophenyl)-1H-1,2,3-triazol-4-yl]-3-methyl-1H-indazole] | 1960 nM | – | > 30000 nM | –
